# Test results as given in patent US5583108A, “Vasonatrin peptide and analogs thereof” (Mayo Foundation for Medical Education and Research, priority 1994, dated 1996).
# How the values were obtained:
# normal rats = assay: Cardiorenal actions after intravenous bolus in anesthetized normal rats; type: in vivo, Wistar rats; details: for MAP mean arterial pressure / HR heart rate / RAP right atrial pressure / UKV urine potassium excretion / UNaV urine sodium excretion / UV urine volume / UcGMPV urine cGMP volume / PcGMP plasma cGMP: mean ± SEM; for MAP mean arterial pressure: n = 4
# Method: (§1) The results obtained are expressed as the means ±SEM. In organ chamber studies, n equals the number of dogs from which rings were taken. Rings with and without endothelium were studied in parallel, and Student's t-test for unpaired observations was used to determine statistical significance among the responses of rings with and without endothelium and between responses of arteries and veins. In rat studies, the data were analyzed using ANOVA for repeated measures followed by Fisher's least significant difference test when appropriate within the group. Data between groups were analyzed by Student's unpaired t-test. Statistical significance was determined at p<0.05.
# Experiments were conducted in accordance with the Animal Welfare Act. Wistar rats and spontaneously hypertensive rats (SHR) (400 g; Harlan Sprague-Dawley, Indianapolis, Ind.) were anesthetized with Inactin (100 mg/kg; intraperitoneal; BYK Gulden, Konstanz, Germany). The body temperature was maintained between 36° and 38° C. by a heating pad. Tracheostomy was performed; however, the animals were not artificially ventilated. Polyethylene catheters (PE-50; Becton Dickinson Co., Parsippany, N.J.) were placed in the left Jugular vein for infusions of saline and drugs, in the right jugular vein to right atrium to monitor right atrial pressure, and in the carotid artery for the collection of blood samples and to monitor mean arterial pressure. A PE-90 catheter was placed in the bladder for urine collection.
# Experiments were conducted in three groups in normal rats: ANP group (n=4), CNP group (n=4), and VNP group (n=4). VNP also was studied in SHR rats (n=4). Intravenous infusions of saline solution (0.9% NaCl) were performed (1 ml/100 gm body weight/hr) through the left jugular vein catheter. After completion of surgery, rats were allowed to stabilize for 30 minutes. In each group, a 15-min baseline period followed. After the baseline period, saline solution (0.9% NaCl) was administered in a bolus fashion (0.1 ml) and was followed by a 15-min period. After the saline period, the peptide (ANP, CNP or VNP) was administered in a bolus fashion (0.1 ml) at 5 μg/kg which was followed by a 15-min period. This was followed by a second bolus (0.1 ml) at 50 μg/kg and a 15-min period. After a 30-min washout, a 15-min recovery period followed. During each experimental period, mean arterial pressure (MAP), heart rate (HR), and right atrial pressure (RAP) were measured. At the midpoint of baseline, second bolus fashion (50 μg/kg) and recovery periods, blood was sampled for plasma cGMP. At the end of each period, urine was measured for volume (UV), and samples were stored for electrolytes and cGMP analysis.
# Blood for plasma cGMP analysis was collected into EDTA tubes, immediately placed on ice, and centrifuged at […] at 4° C. Plasma was separated and stored at -20° C. until assay. Urine for cGMP determination was heated to >90° C. before storage. Plasma and urine cGMP were determined by a specific RIA as previously described by A. L. Steiner et al., J. Hypertension, 5 (Suppl. 5) 551-553 (1987).
# [1] = system: isolated normal canine blood vessels; assay: Organ chamber isometric force: relaxation of phenylephrine-contracted vessel rings; parameters: species or system dog; details: for relaxation: maximal dose (3×10^-6 M); for maximal response, percent change in tension from a contraction to phenylephrine: peptide 3 × 10^-6 M, mean ± SEM
# Method: as §1
# Rings cut from femoral, saphenous, renal and pulmonary arteries and veins obtained from random source mongrel dogs (anesthetized with 30 mg/kg pentobarbital sodium intravenously) were suspended for the measurement of isometric force in organ chambers filled with aerated (95% O2 and 5% CO2) modified Krebs-Ringer bicarbonate solution (composition in mM: 118.3 NaCl, 4.7 KCl, 2.5 CaCl2, 1.2 MgSO4, 1.2 KH2 PO4, 25.0 NaHCO3, 0.026 calcium sodium EDTA, and 11.1 dextrose; control solution) at 37° C. In one-half rings, the endothelium was removed by gently rubbing the intimal surface with a cotton swab wetted with control solution. Each ring was stretched to the optimal point on its length-tension curve as determined by the tension developed to norepinephrine (3×10^-7 M) at each level of stretch. The presence of endothelium was determined at the beginning of the experiment by a relaxation to acetylcholine (10^-6 M) during a contraction to norepinephrine at optimal length. The maximal tension of each ring was determined by norepinephrine (10^-4 M). To study responses to ANP, CNP and VNP, the rings were contracted with phenylephrine (10^-6 M). These contractions averaged 30-40% of the maximal contraction to norepinephrine. The peptides were added cumulatively once the contraction had stabilized.
# The following commercially available drugs were used: acetylcholine chloride (Sigma Chemical, St. Louis, Mo.), human ANP and human CNP (Peninsula Laboratories, Belmont, Calif.), L-norepinephrine bitartrate (Sigma), phenylephrine bitartrate (Sigma). All drugs were dissolved in distilled water immediately prior to study, and the concentrations are reported as the final molar concentration (M) in the organ chamber.
# [2] = normal rats, high dose (50 μg/kg) bolus
compound,measurement,setting,value
"CC[C@H](C)[C@@H]1NC(=O)[C@H](CCCNC(=N)N)NC(=O)[C@H](CC(=O)O)NC(=O)[C@H](CCSC)NC(=O)[C@H](CCCNC(=N)N)NC(=O)CNC(=O)CNC(=O)[C@H](Cc2ccccc2)NC(=O)[C@@H](NC(=O)[C@H](CO)NC(=O)[C@H](CO)NC(=O)[C@H](CCCNC(=N)N)NC(=O)[C@H](CCCNC(=N)N)NC(=O)[C@H](CC(C)C)NC(=O)[C@@H](N)CO)CSSC[C@@H](C(=O)N[C@@H](CC(N)=O)C(=O)N[C@@H](CO)C(=O)N[C@@H](Cc2ccccc2)C(=O)N[C@@H](CCCNC(=N)N)C(=O)N[C@@H](Cc2ccc(O)cc2)C(=O)O)NC(=O)CNC(=O)[C@H](CC(C)C)NC(=O)CNC(=O)[C@H](CO)NC(=O)[C@H](CCC(N)=O)NC(=O)[C@H](C)NC(=O)CNC1=O [ANP, atrial natriuretic peptide]",natriuretic action (in words),"normal rats; in vivo, rat",potent natriuretic
same,change in MAP and RAP (in words),normal rats; [2],significant decrease
same,"change in urine flow, sodium excretion, plasma cGMP and urinary cGMP volume (in words)",normal rats; [2],increased
same,MAP mean arterial pressure,"normal rats; normal rats, iv bolus 5 μg/kg, 15-min period",97 ± 12 mmHg
same,HR heart rate,"normal rats; normal rats, iv bolus 5 μg/kg",353 ± 14 beats/min
same,RAP right atrial pressure,"normal rats; normal rats, iv bolus 5 μg/kg",-2.3 ± 0.8 mmHg
same,UKV urine potassium excretion,"normal rats; normal rats, iv bolus 5 μg/kg",10.3 ± 3.5 µmol/min
same,UNaV urine sodium excretion,"normal rats; normal rats, iv bolus 5 μg/kg",13.2 ± 3.5 µmol/min
same,UV urine volume,"normal rats; normal rats, iv bolus 5 μg/kg",79 ± 10 µL/min
same,UcGMPV urine cGMP volume,"normal rats; normal rats, iv bolus 5 μg/kg",605 ± 151 pmol/min
same,HR heart rate,"normal rats; normal rats, iv bolus 50 μg/kg",355 ± 19 beats/min
same,PcGMP plasma cGMP,"normal rats; normal rats, iv bolus 50 μg/kg",25.7 ± 7.1 pmol/mL
same,RAP right atrial pressure,"normal rats; normal rats, iv bolus 50 μg/kg",-3.8 ± 0.8 mmHg
same,UKV urine potassium excretion,"normal rats; normal rats, iv bolus 50 μg/kg",24.4 ± 8.7 µmol/min
same,UNaV urine sodium excretion,"normal rats; normal rats, iv bolus 50 μg/kg",68.2 ± 15.7 µmol/min
same,UV urine volume,"normal rats; normal rats, iv bolus 50 μg/kg",341 ± 41 µL/min
same,UcGMPV urine cGMP volume,"normal rats; normal rats, iv bolus 50 μg/kg",2580 ± 505 pmol/min
same,MAP mean arterial pressure,"normal rats; normal rats, recovery period after 30-min washout",92 ± 11 mmHg
same,HR heart rate,"normal rats; normal rats, recovery period",368 ± 23 beats/min
same,PcGMP plasma cGMP,"normal rats; normal rats, recovery period",3.2 ± 0.3 pmol/mL
same,RAP right atrial pressure,"normal rats; normal rats, recovery period",-0.8 ± 0.9 mmHg
same,UKV urine potassium excretion,"normal rats; normal rats, recovery period",2.4 ± 0.1 µmol/min
same,UNaV urine sodium excretion,"normal rats; normal rats, recovery period",8.9 ± 3.5 µmol/min
same,UV urine volume,"normal rats; normal rats, recovery period",48 ± 14 µL/min
same,UcGMPV urine cGMP volume,"normal rats; normal rats, recovery period",105 ± 63 pmol/min
same,MAP mean arterial pressure,"normal rats; normal rats, second iv bolus 50 μg/kg, 15-min period",69 ± 7 mmHg
same,relaxation,[1]; femoral and saphenous arteries,no effects
same,"maximal response, percent change in tension from a contraction to phenylephrine","[1]; femoral artery, with endothelium, phenylephrine 10^-6 M",10 ± 5%
same,"maximal response, percent change in tension from a contraction to phenylephrine","[1]; femoral artery, without endothelium",19 ± 12%
same,"maximal response, percent change in tension from a contraction to phenylephrine","[1]; femoral vein, with endothelium",6 ± 3%
same,"maximal response, percent change in tension from a contraction to phenylephrine","[1]; femoral vein, without endothelium",4 ± 4%
same,relaxation,[1]; femoral veins,no effect
same,"maximal response, percent change in tension from a contraction to phenylephrine","[1]; pulmonary artery, with endothelium",60 ± 7%
same,"maximal response, percent change in tension from a contraction to phenylephrine","[1]; pulmonary artery, without endothelium",75 ± 8%
same,"maximal response, percent change in tension from a contraction to phenylephrine","[1]; pulmonary vein, with endothelium",49 ± 5%
same,"maximal response, percent change in tension from a contraction to phenylephrine","[1]; pulmonary vein, without endothelium",16 ± 3%
same,"maximal response, percent change in tension from a contraction to phenylephrine","[1]; renal artery, with endothelium",27 ± 6%
same,"maximal response, percent change in tension from a contraction to phenylephrine","[1]; renal artery, without endothelium",30 ± 6%
same,"maximal response, percent change in tension from a contraction to phenylephrine","[1]; renal vein, with endothelium",12 ± 3%
same,"maximal response, percent change in tension from a contraction to phenylephrine","[1]; renal vein, without endothelium",11 ± 4%
same,"maximal response, percent change in tension from a contraction to phenylephrine","[1]; saphenous artery, with endothelium",0 ± 0%
same,"maximal response, percent change in tension from a contraction to phenylephrine","[1]; saphenous artery, without endothelium",3 ± 3%
same,"maximal response, percent change in tension from a contraction to phenylephrine","[1]; saphenous vein, with endothelium",0 ± 0%
same,"maximal response, percent change in tension from a contraction to phenylephrine","[1]; saphenous vein, without endothelium",0 ± 0%
same,relaxation,[1]; saphenous veins,no effect
same,"relaxation, % of the contraction to phenylephrine","[1]; systemic arteries (femoral, saphenous and renal)",less than 30%
